{
  "source": "PubChem BioAssay AID2060899",
  "about": "(Molecular Pharmacology Branch, DTP, NCI, 2025)",
  "test_system": "565726-208-R1-J5-PDC complex spheroids, growth inhibition",
  "experiment": "Anticancer human tumor 565726-208-R1-J5-PDC patient-derived pancreatic adenocarcinoma cell line growth inhibition [RAS]",
  "settings": "for IC50: curve of first compound; for viability, T/C: stronger effect = lower value",
  "outline": "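Tumour cells grown as complex spheroids with HUVEC endothelial cells and mesenchymal stem cells, treated with RAS pathway inhibitor combinations. Each agent spans half-log steps from near clinical Cmax, or 10 microM where Cmax is unknown.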",
  "key": {"[1]": {"settings": "second compound 0.00316 µM, first compound 0.0316 µM"}, "[2]": {"settings": "second compound 0.00316 µM, first compound 0.1 µM"}, "[3]": {"settings": "second compound 0.01 µM, first compound 0.0316 µM"}, "[4]": {"settings": "second compound 0.01 µM, first compound 0.1 µM"}, "[5]": {"settings": "second compound 0.0316 µM, first compound 0.0316 µM"}, "[6]": {"settings": "second compound 0.0316 µM, first compound 0.1 µM"}, "[7]": {"settings": "second compound 0.1 µM, first compound 0.0316 µM"}, "[8]": {"settings": "second compound 0.1 µM, first compound 0.1 µM"}, "[9]": {"settings": "second compound 0.316 µM, first compound 0.0316 µM"}, "[10]": {"settings": "second compound 0.316 µM, first compound 0.1 µM"}, "[11]": {"settings": "second compound 1 µM, first compound 0.0316 µM"}, "[12]": {"settings": "second compound 1 µM, first compound 0.1 µM"}},
  "data": [
    {"compound": "CC(C)NCC(C(=O)N1CCN(c2ncnc3c2C(C)CC3O)CC1)c1ccc(Cl)cc1", "note": "(centres undefined) + C=CC(=O)N1CCN(c2nc(OCC3CCCN3C)nc3c(F)c(-c4nc(N)cc(C)c4C(F)(F)F)c(Cl)cc23)C(C)C1;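 further: spheroids exposed to compounds for seven days before readout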;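 on viability, T/C: 100% = DMSO vehicle control viability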", "values": [
      {"measurement": "IC50", "setting": "second compound 0.00316 µM", "value": "> 10000", "unit": "nM"},
      {"measurement": "IC50", "setting": "second compound 0.01 µM", "value": "> 10000", "unit": "nM"},
      {"measurement": "IC50", "setting": "second compound 0.0316 µM", "value": "> 10000", "unit": "nM"},
      {"measurement": "IC50", "setting": "second compound 0.1 µM", "value": "> 10000", "unit": "nM"},
      {"measurement": "IC50", "setting": "second compound 0.316 µM", "value": "> 10000", "unit": "nM"},
      {"measurement": "IC50", "setting": "second compound 1 µM", "value": "> 10000", "unit": "nM"},
      {"measurement": "viability, T/C", "setting": "[1]", "value": 90.5, "unit": "%"},
      {"measurement": "viability, T/C", "setting": "[2]", "value": 152, "unit": "%"},
      {"measurement": "viability, T/C", "setting": "second compound 0.00316 µM, first compound 0.316 µM", "value": 89, "unit": "%"},
      {"measurement": "viability, T/C", "setting": "second compound 0.00316 µM, first compound 1 µM", "value": 91, "unit": "%"},
      {"measurement": "viability, T/C", "setting": "second compound 0.00316 µM, first compound 3.16 µM", "value": 93.3, "unit": "%"},
      {"measurement": "viability, T/C", "setting": "second compound 0.00316 µM, first compound 10 µM", "value": 110, "unit": "%"},
      {"measurement": "viability, T/C", "setting": "[3]", "value": 133, "unit": "%"},
      {"measurement": "viability, T/C", "setting": "[4]", "value": 153, "unit": "%"},
      {"measurement": "viability, T/C", "setting": "second compound 0.01 µM, first compound 0.316 µM", "value": 91, "unit": "%"},
      {"measurement": "viability, T/C", "setting": "second compound 0.01 µM, first compound 1 µM", "value": 78.3, "unit": "%"},
      {"measurement": "viability, T/C", "setting": "second compound 0.01 µM, first compound 3.16 µM", "value": 104, "unit": "%"},
      {"measurement": "viability, T/C", "setting": "second compound 0.01 µM, first compound 10 µM", "value": 127, "unit": "%"},
      {"measurement": "viability, T/C", "setting": "[5]", "value": 125, "unit": "%"},
      {"measurement": "viability, T/C", "setting": "[6]", "value": 160, "unit": "%"},
      {"measurement": "viability, T/C", "setting": "second compound 0.0316 µM, first compound 0.316 µM", "value": 90.2, "unit": "%"},
      {"measurement": "viability, T/C", "setting": "second compound 0.0316 µM, first compound 1 µM", "value": 89.8, "unit": "%"},
      {"measurement": "viability, T/C", "setting": "second compound 0.0316 µM, first compound 3.16 µM", "value": 93.5, "unit": "%"},
      {"measurement": "viability, T/C", "setting": "second compound 0.0316 µM, first compound 10 µM", "value": 125, "unit": "%"},
      {"measurement": "viability, T/C", "setting": "[7]", "value": 176, "unit": "%"},
      {"measurement": "viability, T/C", "setting": "[8]", "value": 154, "unit": "%"},
      {"measurement": "viability, T/C", "setting": "second compound 0.1 µM, first compound 0.316 µM", "value": 93.1, "unit": "%"},
      {"measurement": "viability, T/C", "setting": "second compound 0.1 µM, first compound 1 µM", "value": 85.4, "unit": "%"},
      {"measurement": "viability, T/C", "setting": "second compound 0.1 µM, first compound 3.16 µM", "value": 80.6, "unit": "%"},
      {"measurement": "viability, T/C", "setting": "second compound 0.1 µM, first compound 10 µM", "value": 120, "unit": "%"},
      {"measurement": "viability, T/C", "setting": "[9]", "value": 147, "unit": "%"},
      {"measurement": "viability, T/C", "setting": "[10]", "value": 153, "unit": "%"},
      {"measurement": "viability, T/C", "setting": "second compound 0.316 µM, first compound 0.316 µM", "value": 88.5, "unit": "%"},
      {"measurement": "viability, T/C", "setting": "second compound 0.316 µM, first compound 1 µM", "value": 96.6, "unit": "%"},
      {"measurement": "viability, T/C", "setting": "second compound 0.316 µM, first compound 3.16 µM", "value": 73.4, "unit": "%"},
      {"measurement": "viability, T/C", "setting": "second compound 0.316 µM, first compound 10 µM", "value": 118, "unit": "%"},
      {"measurement": "viability, T/C", "setting": "[11]", "value": 175, "unit": "%"},
      {"measurement": "viability, T/C", "setting": "[12]", "value": 155, "unit": "%"},
      {"measurement": "viability, T/C", "setting": "second compound 1 µM, first compound 0.316 µM", "value": 130, "unit": "%"},
      {"measurement": "viability, T/C", "setting": "second compound 1 µM, first compound 1 µM", "value": 95.1, "unit": "%"},
      {"measurement": "viability, T/C", "setting": "second compound 1 µM, first compound 3.16 µM", "value": 80.7, "unit": "%"},
      {"measurement": "viability, T/C", "setting": "second compound 1 µM, first compound 10 µM", "value": 95.9, "unit": "%"}
    ]},
    {"compound": "CC(C)n1nc(-c2ccc3oc(N)nc3c2)c2c(N)ncnc21", "note": "+ C=CC(=O)N1CCN(c2nc(OCC3CCCN3C)nc3c(F)c(-c4nc(N)cc(C)c4C(F)(F)F)c(Cl)cc23)C(C)C1", "values": [
      {"measurement": "IC50", "setting": "second compound 0.00316 µM", "value": 100, "unit": "nM"},
      {"measurement": "IC50", "setting": "second compound 0.01 µM", "value": 25.2, "unit": "nM"},
      {"measurement": "IC50", "setting": "second compound 0.0316 µM", "value": 44.9, "unit": "nM"},
      {"measurement": "IC50", "setting": "second compound 0.1 µM", "value": 59.1, "unit": "nM"},
      {"measurement": "IC50", "setting": "second compound 0.316 µM", "value": 100, "unit": "nM"},
      {"measurement": "IC50", "setting": "second compound 1 µM", "value": 80.9, "unit": "nM"},
      {"measurement": "viability, T/C", "setting": "second compound 0.00316 µM, first compound 0.000316 µM", "value": 93, "unit": "%"},
      {"measurement": "viability, T/C", "setting": "second compound 0.00316 µM, first compound 0.001 µM", "value": 138, "unit": "%"},
      {"measurement": "viability, T/C", "setting": "second compound 0.00316 µM, first compound 0.00316 µM", "value": 70.2, "unit": "%"},
      {"measurement": "viability, T/C", "setting": "second compound 0.00316 µM, first compound 0.01 µM", "value": 62.3, "unit": "%"},
      {"measurement": "viability, T/C", "setting": "[1]", "value": 57.1, "unit": "%"},
      {"measurement": "viability, T/C", "setting": "[2]", "value": 42, "unit": "%"},
      {"measurement": "viability, T/C", "setting": "second compound 0.01 µM, first compound 0.000316 µM", "value": 93.5, "unit": "%"},
      {"measurement": "viability, T/C", "setting": "second compound 0.01 µM, first compound 0.001 µM", "value": 132, "unit": "%"},
      {"measurement": "viability, T/C", "setting": "second compound 0.01 µM, first compound 0.00316 µM", "value": 96.7, "unit": "%"},
      {"measurement": "viability, T/C", "setting": "second compound 0.01 µM, first compound 0.01 µM", "value": 68.2, "unit": "%"},
      {"measurement": "viability, T/C", "setting": "[3]", "value": 48.2, "unit": "%"},
      {"measurement": "viability, T/C", "setting": "[4]", "value": 39.5, "unit": "%"},
      {"measurement": "viability, T/C", "setting": "second compound 0.0316 µM, first compound 0.000316 µM", "value": 99.8, "unit": "%"},
      {"measurement": "viability, T/C", "setting": "second compound 0.0316 µM, first compound 0.001 µM", "value": 148, "unit": "%"},
      {"measurement": "viability, T/C", "setting": "second compound 0.0316 µM, first compound 0.00316 µM", "value": 81.7, "unit": "%"},
      {"measurement": "viability, T/C", "setting": "second compound 0.0316 µM, first compound 0.01 µM", "value": 78.3, "unit": "%"},
      {"measurement": "viability, T/C", "setting": "[5]", "value": 55.5, "unit": "%"},
      {"measurement": "viability, T/C", "setting": "[6]", "value": 41.1, "unit": "%"},
      {"measurement": "viability, T/C", "setting": "second compound 0.1 µM, first compound 0.000316 µM", "value": 107, "unit": "%"},
      {"measurement": "viability, T/C", "setting": "second compound 0.1 µM, first compound 0.001 µM", "value": 121, "unit": "%"},
      {"measurement": "viability, T/C", "setting": "second compound 0.1 µM, first compound 0.00316 µM", "value": 86.5, "unit": "%"},
      {"measurement": "viability, T/C", "setting": "second compound 0.1 µM, first compound 0.01 µM", "value": 70.8, "unit": "%"},
      {"measurement": "viability, T/C", "setting": "[7]", "value": 65.7, "unit": "%"},
      {"measurement": "viability, T/C", "setting": "[8]", "value": 40.3, "unit": "%"},
      {"measurement": "viability, T/C", "setting": "second compound 0.316 µM, first compound 0.000316 µM", "value": 87.1, "unit": "%"},
      {"measurement": "viability, T/C", "setting": "second compound 0.316 µM, first compound 0.001 µM", "value": 126, "unit": "%"},
      {"measurement": "viability, T/C", "setting": "second compound 0.316 µM, first compound 0.00316 µM", "value": 70.7, "unit": "%"},
      {"measurement": "viability, T/C", "setting": "second compound 0.316 µM, first compound 0.01 µM", "value": 68.7, "unit": "%"},
      {"measurement": "viability, T/C", "setting": "[9]", "value": 49.7, "unit": "%"},
      {"measurement": "viability, T/C", "setting": "[10]", "value": 46, "unit": "%"},
      {"measurement": "viability, T/C", "setting": "second compound 1 µM, first compound 0.000316 µM", "value": 79.9, "unit": "%"},
      {"measurement": "viability, T/C", "setting": "second compound 1 µM, first compound 0.001 µM", "value": 96.3, "unit": "%"},
      {"measurement": "viability, T/C", "setting": "second compound 1 µM, first compound 0.00316 µM", "value": 97.7, "unit": "%"},
      {"measurement": "viability, T/C", "setting": "second compound 1 µM, first compound 0.01 µM", "value": 65.6, "unit": "%"},
      {"measurement": "viability, T/C", "setting": "[11]", "value": 65, "unit": "%"},
      {"measurement": "viability, T/C", "setting": "[12]", "value": 45.2, "unit": "%"}
    ]}
  ]
}
